In patent US12624067B2, “Cyclic peptide, cell scaffold material, cell separating material, and medium” (FUJIFILM Corporation, priority 2019, dated 2026):
Numbered stars: 1 amine (or outer) side, 2 acyl side, 3 side chain; on linkers, the order of the positions; unused ones are H or OH. Bridge positions count the residues as written; N and C are the ends. Square brackets hold non-standard residues; d marks the D form. Peptide text beside a SMILES is read from it. hCys = N[C@@H](CCS)C(=O)O; Orn = NCCC[C@H](N)C(=O)O; Dab = NCC[C@H](N)C(=O)O; Dap = NC[C@H](N)C(=O)O; X1 = O=C(C[*:1])[*:2]; X2 = O=C(C[*:2])[*:1]

Tests used:
human integrin αvβ5 = human integrin αvβ5 (Homo sapiens, UniProt P06756+P18084); experiment: Evaluation of integrin binding property (surface plasmon resonance, Biacore 3000, immobilized cyclic peptide); conditions: peptide immobilized on CM5 sensor chip; human integrin αvβ5 30-1,000 nM, 25° C., HEPES buffer with 5 mM magnesium chloride; read-out: Integrin binding property (dissociation constant)
Description: A commercially available CM5 sensor chip (a carboxymethyl dextran introduction type, manufactured by GE Healthcare) was set in a surface plasmon resonance apparatus (product name: Biacore 3000, manufactured by GE Healthcare), the sensor was stabilized at a flow rate of 10 μL/min of a 4-(2-hydroxyethyl)-1-piperazineethanesulfonic acid (HEPES) buffer solution (20 mM HEPES-HCl, 150 mM NaCl, pH 7.4) for surface plasmon resonance (SPR), and 70 μL of a mixed aqueous solution of 0.2 M 1-(3-dimethylaminopropyl)-3-ethylcarbodiimide (EDC) and 0.04 M N-hydroxysuccinimide (NHS) was added thereto. Then, 300 μL of the sample solution of each of the above cyclic peptides diluted to 0.2 g/L with the HEPES buffer solution was supplied to the sensor chip, blocking treatment was subsequently carried out with an ethanolamine solution, and washing was carried out with a sodium hydroxide aqueous solution, whereby immobilization was carried out. However, only for the cyclic peptide 22, in which the number of lysine residues having an amino group as the immobilizing functional group was 1, the sample solution to be supplied to the sensor chip was set to 5,000 μL instead of 300 μL. Similarly; 70 μL of the mixed aqueous solution of 0.2 M EDC and 0.04 M NHS was added to another flow channel of the same sensor chip without immobilizing the sample, and then blocking treatment and washing treatment were carried out. Hereinafter, the obtained immobilization-treated sensor chip is referred to as an “immobilization-treated sensor chip A”.
After adding human integrin αvβ5 for 10 minutes at 25° C., which was diluted to 30 nM using a HEPES buffer solution to which magnesium chloride was added to 5 mM, in each flow channel of the immobilization-treated sensor chip A prepared in (1) above, the same HEPES buffer solution (containing 5 mM magnesium chloride) was allowed to flow as a running buffer for 30 minutes, and measurement was carried out with Biacore 3000.
Then, a regeneration treatment of removing human integrin αvβ5 was carried out by allowing a 0.5 M EDTA aqueous solution to flow through each flow channel for 10 minutes. Further, the above-described measurement process consisting of adding integrin for 10 minutes, allowing a running buffer to flow for 30 minutes, carrying out measurement with Biacore 3000, and carrying out regeneration treatment with 0.5 M EDTA aqueous solution was carried out in the same manner for 100 nM human integrin αvβ5, 300 nM human integrin αvβ5, and 1,000 nM human integrin αvβ5. Dissociation constant between the cyclic peptide and human integrin αvβ5 was calculated from the difference between the value measured by Biacore 3000 in the flow channel immobilized with the cyclic peptide and the value measured by Biacore 3000 in the flow channel unimmobilized with the cyclic peptide, in a case where each concentration of human integrin αvβ5 was allowed to flow; and the integrin binding property was evaluated according to the following evaluation standards. It is preferable that the evaluation result satisfies the evaluation standard A, B, or C.

[1] = Evaluation of molecule stability (alkali treatment, LC/MS residual rate); type: physicochemical; conditions: 500 μM peptide plus equivalent of 1 M sodium hydroxide, 15° C., 20 minutes, LC/MS peak area
Description: The molecule stability of the cyclic peptide was evaluated by analyzing the alkali-treated cyclic peptide aqueous solution by liquid chromatography mass spectroscopy (LC/MS).
The alkali treatment was carried out by the following method. A 500 μM cyclic peptide aqueous solution was prepared, an equivalent of 1 M sodium hydroxide aqueous solution was added to this aqueous solution, and the resultant mixture was incubated at 15° C. for 20 minutes to obtain an alkali-treated cyclic peptide aqueous solution. The cyclic peptide residual rate was calculated by setting the total area of all peaks of the cyclic peptide before alkali treatment in LC/MS to 100% and determining the proportion of the total area of all peaks in LC/MS of the alkali-treated cyclic peptide aqueous solution, and the molecule stability was evaluated according to the following evaluation standards. It is preferable that the evaluation result satisfies the evaluation standard A, B, or C.
The conditions of the LC/MS used for the evaluation of molecule stability were set as follows. • LC apparatus: Prominence series (pump, column oven, autosampler, detector) (manufactured by Shimadzu Corporation) • MS detector: LC/MS2010EV (manufactured by Shimadzu Corporation) • Column: Cadenza CD-C18, inner diameter 2.0 mm×length 250 mm, particle size: 3 μm (manufactured by Imtakt Corporation) • Eluent A: a solution (pH 3) containing 10 mM ammonium formate as a solute, where the solvent is 100% water. • Eluent B: a solution (pH 3) containing 10 mM ammonium formate as a solute, where the solvent is acetonitrile/water=90/10. • Flow rate: 0.2 mL/min • Injection volume: 4 μL • Gradient: 0% to 30%: Eluent B (0 to 30 minutes), 100%: Eluent B (30 to 40 minutes), 0%: Eluent B (40 to 60 minutes)(B indicates the eluent B) • Column temperature: 45° C. • Ionization method: electrospray ionization (ESI) positive, ESI negative

Chain of human integrin αvβ5 (P06756 31-889 limits assumed): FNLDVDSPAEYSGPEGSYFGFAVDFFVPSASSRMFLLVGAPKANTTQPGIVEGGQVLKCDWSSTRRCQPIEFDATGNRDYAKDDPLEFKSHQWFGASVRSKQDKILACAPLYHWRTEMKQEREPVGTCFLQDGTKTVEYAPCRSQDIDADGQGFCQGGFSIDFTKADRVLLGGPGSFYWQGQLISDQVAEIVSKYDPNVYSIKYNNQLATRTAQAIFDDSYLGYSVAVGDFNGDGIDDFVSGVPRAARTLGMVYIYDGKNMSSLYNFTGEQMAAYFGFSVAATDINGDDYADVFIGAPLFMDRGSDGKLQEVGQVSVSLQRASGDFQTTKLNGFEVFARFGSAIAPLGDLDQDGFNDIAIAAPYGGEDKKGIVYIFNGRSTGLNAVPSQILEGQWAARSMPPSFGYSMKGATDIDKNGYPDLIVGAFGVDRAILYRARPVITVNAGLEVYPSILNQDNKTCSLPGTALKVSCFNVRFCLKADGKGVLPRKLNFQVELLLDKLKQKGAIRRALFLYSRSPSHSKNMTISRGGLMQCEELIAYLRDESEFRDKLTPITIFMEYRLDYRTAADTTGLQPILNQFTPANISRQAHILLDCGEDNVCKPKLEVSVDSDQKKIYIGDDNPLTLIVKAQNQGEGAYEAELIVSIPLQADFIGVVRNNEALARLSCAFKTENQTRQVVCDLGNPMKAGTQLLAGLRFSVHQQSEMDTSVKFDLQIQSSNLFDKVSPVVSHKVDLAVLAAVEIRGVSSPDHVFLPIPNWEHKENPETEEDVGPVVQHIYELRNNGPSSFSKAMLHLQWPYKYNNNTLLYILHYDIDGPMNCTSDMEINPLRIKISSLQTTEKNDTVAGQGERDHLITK
Chain of human integrin αvβ5 (P06756 891-1048 partner limits assumed): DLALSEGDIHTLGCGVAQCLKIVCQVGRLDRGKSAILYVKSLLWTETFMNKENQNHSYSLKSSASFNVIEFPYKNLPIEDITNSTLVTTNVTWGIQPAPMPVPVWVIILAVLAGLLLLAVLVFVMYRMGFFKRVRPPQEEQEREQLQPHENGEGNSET
Chain of human integrin αvβ5 (P18084 24-799): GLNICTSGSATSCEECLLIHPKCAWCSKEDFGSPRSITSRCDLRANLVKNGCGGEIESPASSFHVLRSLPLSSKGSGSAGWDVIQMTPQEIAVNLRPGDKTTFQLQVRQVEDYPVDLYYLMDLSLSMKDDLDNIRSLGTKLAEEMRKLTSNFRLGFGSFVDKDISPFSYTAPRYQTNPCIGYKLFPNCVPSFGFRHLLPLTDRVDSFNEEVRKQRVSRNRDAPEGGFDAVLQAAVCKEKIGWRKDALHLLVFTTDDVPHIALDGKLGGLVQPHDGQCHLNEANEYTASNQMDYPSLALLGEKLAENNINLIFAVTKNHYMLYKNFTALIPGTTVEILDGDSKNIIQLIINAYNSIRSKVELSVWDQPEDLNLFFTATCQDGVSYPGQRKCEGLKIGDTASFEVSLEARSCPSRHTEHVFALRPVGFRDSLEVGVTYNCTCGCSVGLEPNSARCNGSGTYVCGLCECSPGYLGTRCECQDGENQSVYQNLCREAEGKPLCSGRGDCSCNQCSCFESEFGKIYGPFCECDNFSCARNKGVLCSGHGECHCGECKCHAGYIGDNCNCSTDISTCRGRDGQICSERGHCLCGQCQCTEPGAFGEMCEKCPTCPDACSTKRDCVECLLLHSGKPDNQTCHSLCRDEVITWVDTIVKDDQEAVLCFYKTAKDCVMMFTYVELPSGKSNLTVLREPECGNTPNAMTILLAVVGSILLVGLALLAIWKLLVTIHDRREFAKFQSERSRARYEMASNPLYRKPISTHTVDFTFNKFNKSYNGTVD

| SMILES | Kd (human integrin αvβ5) [µM] | Molecule stability (cyclic peptide residual rate) [1] |
| --- | --- | --- |
| CC[C@H](C)[C@@H]1NC(=O)CSCC[C@@H](C(=O)N[C@@H](CCCCN)C(=O)N[C@@H](CCCCN)C(=O)N[C@@H](CCCCN)C(=O)O)NC(=O)[C@H](Cc2ccccc2)NC(=O)[C@@H]2CCSCC(=O)NC[C@H](NC1=O)C(=O)N[C@@H](CCCNC(=N)N)C(=O)NCC(=O)N[C@@H](CC(=O)O)C(=O)N2 [Cyclic peptide 1] ({CH2CO}-I[Dap]RGD[hCys]F[hCys]KKK-OH; linker 2-6 via X2; thioether N-8) | 0.05 to 0.1 | A (The residual rate of the cyclic peptide is 70% or more.) |
| CC[C@H](C)[C@@H]1NC(=O)CSCC[C@@H](C(=O)N[C@@H](CCCCN)C(=O)N[C@@H](CCCCN)C(=O)N[C@@H](CCCCN)C(=O)O)NC(=O)[C@H](Cc2ccccc2)NC(=O)[C@@H]2CCSCC(=O)NCC[C@H](NC1=O)C(=O)N[C@@H](CCCNC(=N)N)C(=O)NCC(=O)N[C@@H](CC(=O)O)C(=O)N2 [Cyclic peptide 2] ({CH2CO}-I[Dab]RGD[hCys]F[hCys]KKK-OH; linker 2-6 via X2; thioether N-8) | 0.1 to 0.2 | A (The residual rate of the cyclic peptide is 70% or more.) |
| CC[C@H](C)[C@@H]1NC(=O)CSCC[C@@H](C(=O)N[C@@H](CCCCN)C(=O)N[C@@H](CCCCN)C(=O)N[C@@H](CCCCN)C(=O)O)NC(=O)[C@H](Cc2ccccc2)NC(=O)[C@@H]2CCSCC(=O)NCCC[C@H](NC1=O)C(=O)N[C@@H](CCCNC(=N)N)C(=O)NCC(=O)N[C@@H](CC(=O)O)C(=O)N2 [Cyclic peptide 3] ({CH2CO}-I[Orn]RGD[hCys]F[hCys]KKK-OH; linker 2-6 via X2; thioether N-8) | < 0.05 | A (The residual rate of the cyclic peptide is 70% or more.) |
| CC[C@H](C)[C@@H]1NC(=O)CSCC[C@@H](C(=O)N[C@@H](CCCCN)C(=O)N[C@@H](CCCCN)C(=O)N[C@@H](CCCCN)C(=O)O)NC(=O)[C@H](Cc2ccccc2)NC(=O)[C@@H]2CCSCC(=O)NCCCC[C@H](NC1=O)C(=O)N[C@@H](CCCNC(=N)N)C(=O)NCC(=O)N[C@@H](CC(=O)O)C(=O)N2 [Cyclic peptide 4] ({CH2CO}-IKRGD[hCys]F[hCys]KKK-OH; linker 2-6 via X2; thioether N-8) | 0.05 to 0.1 | A (The residual rate of the cyclic peptide is 70% or more.) |
| CC[C@H](C)[C@@H]1NC(=O)CSCC[C@@H](C(=O)N[C@@H](CCCCN)C(=O)N[C@@H](CCCCN)C(=O)N[C@@H](CCCCN)C(=O)O)NC(=O)[C@H](Cc2ccccc2)NC(=O)[C@@H]2CNC(=O)CSCC[C@H](NC1=O)C(=O)N[C@@H](CCCNC(=N)N)C(=O)NCC(=O)N[C@@H](CC(=O)O)C(=O)N2 [Cyclic peptide 5] ({CH2CO}-I[hCys]RGD[Dap]F[hCys]KKK-OH; linker 2-6 via X1; thioether N-8) | 0.05 to 0.1 | A (The residual rate of the cyclic peptide is 70% or more.) |
| CC[C@H](C)[C@@H]1NC(=O)CSC[C@@H](C(=O)N[C@@H](CCCCN)C(=O)N[C@@H](CCCCN)C(=O)N[C@@H](CCCCN)C(=O)O)NC(=O)[C@H](Cc2ccccc2)NC(=O)[C@@H]2CNC(=O)CSC[C@H](NC1=O)C(=O)N[C@@H](CCCNC(=N)N)C(=O)NCC(=O)N[C@@H](CC(=O)O)C(=O)N2 [Cyclic peptide 6] ({CH2CO}-ICRGD[Dap]FCKKK-OH; linker 2-6 via X1; thioether N-8) | 0.1 to 0.2 | B (The residual rate of the cyclic peptide is 50% or more and less than 70%.) |
| CC[C@H](C)[C@@H]1NC(=O)CSCC[C@@H](C(=O)N[C@@H](CCCCN)C(=O)N[C@@H](CCCCN)C(=O)N[C@@H](CCCCN)C(=O)O)NC(=O)[C@H](Cc2ccccc2)NC(=O)[C@@H]2CCNC(=O)CSCC[C@H](NC1=O)C(=O)N[C@@H](CCCNC(=N)N)C(=O)NCC(=O)N[C@@H](CC(=O)O)C(=O)N2 [Cyclic peptide 7] ({CH2CO}-I[hCys]RGD[Dab]F[hCys]KKK-OH; linker 2-6 via X1; thioether N-8) | 0.05 to 0.1 | A (The residual rate of the cyclic peptide is 70% or more.) |
| CC[C@H](C)[C@@H]1NC(=O)CSC[C@@H](C(=O)N[C@@H](CCCCN)C(=O)N[C@@H](CCCCN)C(=O)N[C@@H](CCCCN)C(=O)O)NC(=O)[C@H](Cc2ccccc2)NC(=O)[C@@H]2CCNC(=O)CSC[C@H](NC1=O)C(=O)N[C@@H](CCCNC(=N)N)C(=O)NCC(=O)N[C@@H](CC(=O)O)C(=O)N2 [Cyclic peptide 8] ({CH2CO}-ICRGD[Dab]FCKKK-OH; linker 2-6 via X1; thioether N-8) | < 0.05 | B (The residual rate of the cyclic peptide is 50% or more and less than 70%.) |
| CC[C@H](C)[C@@H]1NC(=O)CSCC[C@@H](C(=O)N[C@@H](CCCCN)C(=O)N[C@@H](CCCCN)C(=O)N[C@@H](CCCCN)C(=O)O)NC(=O)[C@H](Cc2ccccc2)NC(=O)[C@@H]2CCCNC(=O)CSCC[C@H](NC1=O)C(=O)N[C@@H](CCCNC(=N)N)C(=O)NCC(=O)N[C@@H](CC(=O)O)C(=O)N2 [Cyclic peptide 9] ({CH2CO}-I[hCys]RGD[Orn]F[hCys]KKK-OH; linker 2-6 via X1; thioether N-8) | 0.05 to 0.1 | A (The residual rate of the cyclic peptide is 70% or more.) |
| CC[C@H](C)[C@@H]1NC(=O)CSC[C@@H](C(=O)N[C@@H](CCCCN)C(=O)N[C@@H](CCCCN)C(=O)N[C@@H](CCCCN)C(=O)O)NC(=O)[C@H](Cc2ccccc2)NC(=O)[C@@H]2CCCNC(=O)CSC[C@H](NC1=O)C(=O)N[C@@H](CCCNC(=N)N)C(=O)NCC(=O)N[C@@H](CC(=O)O)C(=O)N2 [Cyclic peptide 10] ({CH2CO}-ICRGD[Orn]FCKKK-OH; linker 2-6 via X1; thioether N-8) | 0.05 to 0.1 | B (The residual rate of the cyclic peptide is 50% or more and less than 70%.) |
| N=C(N)NCCC[C@@H]1NC(=O)[C@@H]2CNC(=O)CSCC[C@H](NC(=O)[C@H](CC(=O)O)NC(=O)CNC1=O)C(=O)N[C@@H](Cc1ccccc1)C(=O)N[C@H](C(=O)N[C@@H](CCCCN)C(=O)N[C@@H](CCCCN)C(=O)N[C@@H](CCCCN)C(=O)O)CCSCC(=O)N[C@@H](CCCCN)C(=O)N2 [Cyclic peptide 21] ({CH2CO}-K[Dap]RGD[hCys]F[hCys]KKK-OH; linker 2-6 via X2; thioether N-8; N-terminus and C-terminus assumed) |  | A (The residual rate of the cyclic peptide is 70% or more.) |
| N=C(N)NCCC[C@@H]1NC(=O)[C@@H]2CSSC[C@H](NC(=O)[C@H](CC(=O)O)NC(=O)CNC1=O)C(=O)N[C@@H](Cc1ccccc1)C(=O)N[C@H](C(=O)N[C@@H](CCCCN)C(=O)N[C@@H](CCCCN)C(=O)N[C@@H](CCCCN)C(=O)O)CSCC(=O)N[C@@H](CCCCN)C(=O)N2 [Cyclic peptide 48, reference compound] ({CH2CO}-KCRGDCFCKKK-OH; disulfide 2-6; thioether N-8; N-terminus and C-terminus assumed) |  | D (The residual rate of the cyclic peptide is less than 30%.) |
